Measurements reported in publication PMC8208785, “Therapeutic efficacy of novel memantine nitrate MN‐08 in animal models of Alzheimer’s disease” (Aging Cell, 2021).

Key:
[1] = system: APP/PS1 mice; assay: behavioral tests (SDA, NOR, MWM), prevention study in APP/PS1 mice; format: in vivo; settings: 6 mg/kg gastric gavage, ages 2 to 8 months
Protocol: (§1) APP/PS1 transgenic mice were purchased from Jackson Laboratory and reproduced in the Shenzhen Center for Disease Control and Prevention (Shenzhen, China). Two‐month‐old APP/PS1 mice were divided into four groups: (1) APP/PS1 + Vehicle group; (2) APP/PS1 + MN‐08 (6 mg/kg) group; (3) APP/PS1 + Memantine (Mem, 5 mg/kg) group; (4) APP/PS1 + Donepezil (Done, 1.3 mg/kg, once daily) group; (5) Two‐month‐old C57BL/6J mice as a control group. The APP/PS1 mice were administered drugs twice a day (Done, once daily) by gastric gavage from ages 2 to 8 months for 6 months successively. Control and vehicle groups received equal volumes of saline.
The step-down avoidance (SDA) test was performed as previously described (Zhou et al., 2019). During the training phase, mice were singly placed on a metal floor with electrical stimulation (35 V) for 5 min. After 24 hours, the mouse was positioned on a wooden platform, while the metal floor at the bottom delivered an electrical shock (35 V) for another 5 min. The time for the animal to step down from the wooden platform were recorded as the step-down latency to evaluate retention memory.
Hippocampus-dependent spatial memory was determined by the Morris water maze (MWM) test according to the protocol described in a previous study (Jiao et al., 2015). The MWM test includes a platform training phase and a probe trial phase. An escape platform was placed in a fixed spatial location. During the training phase, each animal was placed at one of four different starting positions and tested four times a day with an interval of approximately 30 min. The animal in the water was immediately removed when it swam to the escape platform within 60 s. […] After the training phase, the probe trial was performed on the sixth day when the platform was removed. The animal was placed in the same starting position in the pool and allowed to move freely for 2 min. The animal swimming track was recorded and analyzed with a digital camera.
The novel object recognition test was performed to assess non-spatial working memory according to previously published protocols (Choi et al., 2011). Firstly, each animal was sequentially placed into a square box (50 × 50 × 50 cm, length × width × height) without any objects for 10 min per day for 2 continuous days to habituate to the environment. Then, two identical objects were placed parallel near one wall of the square box. Animals were placed singly in the box and allowed to explore the objects for 10 min. […] The time each animal took to examine the familiar object and novel object was recorded by digital camera. The discrimination index was calculated according to the following expression: (novel object (s) - familiar object (s))/ (novel object (s) + familiar object (s)). […]

[2] = system: APP/PS1 mice; assay: Western blotting and NeuN staining in hippocampi of APP/PS1 mice (Tau, synapse and apoptosis proteins); format: in vivo; settings: MN‐08 6 mg/kg
Protocol: as §1
Immunohistochemistry and immunofluorescence staining were carried out as previously described (Zhang et al., 2017). Coronal brain sections were incubated with […] sodium citrate (pH 6.0) and heated for 15 min. After cooling to room temperature, the sections were immersed in 3 % H2O2 for 10 min followed by blocking solution (10 % fetal bovine serum, 1 % bovine serum albumin and 0.1 % Triton X-100) for 1 h. Sections were then incubated with the following appropriate primary antibodies overnight at 4°C: anti-Aβ1-42 antibody (#ab10148, 1:1000, Abcam), anti-Aβ1-16 antibody (#803014, 1:1000, Abcam) and anti-NeuN antibody (#ab177487, 1:400, Abcam). After rinsing 3 times, the sections of immunohistochemistry staining were incubated with biotin-conjugated universal secondary antibody (Gene Tech, Shanghai, China). For immunofluorescence staining, the sections were incubated with appropriate secondary antibodies for 2 h at room temperature. Image J software was used to analyze the fluorescence intensity and cell counting from six slices at similar coronal positions of each animal; this was performed by a viewer blinded to the experimental group.
Western blotting analysis was performed as previously described with minor modifications (Huang, Li, & Nan, 2017). Proteins were extracted from hippocampal tissue and their concentrations determined by the BCA protein assay kit (Fdbio science, Hangzhou, China). The protein (20 μg) was separated on a 12% SDS-PAGE gel and then transferred to PVDF membranes. The membranes were blocked using 5 % nonfat dry milk for 2 h. The protein blots were incubated with the corresponding primary antibodies against p-Akt (#4060, 1:1000, Cell Signaling Technology), Akt (#4685, 1:1000, Cell Signaling Technology), BACE1 (#5606, 1:1000, Cell Signaling Technology), PS1 (#5643, 1:1000, Cell Signaling Technology), p-GSK3β (#5558, 1:1000, Cell Signaling Technology), GSK3β (#12456, 1:1000, Cell Signaling Technology), Bcl-2 (#3498, 1:1000, Cell Signaling Technology), Bax (#5023, 1:1000, Cell Signaling Technology), Cleaved caspase-3 (#9661, 1:1000, Cell Signaling Technology), Caspase-3 (#9662, 1:1000, Cell Signaling Technology), ADAM10 (#14194, 1:1000, Cell Signaling Technology), APP (#ab241592, 1:1000, Abcam), sAPPα (#ab126723, 1:1000, Abcam), NEP (#ab216341, 1:1000, Abcam), Synapsin I (#ab64581, 1:1000, Abcam), Synapsin II (#ab76494, 1:1000, Abcam), NR2A (#ab124913, 1:2000, Abcam), PSD95 (#ab18258, 1:1000, Abcam), Synaptophysin (#ab32127, 1:1000, Abcam), IDE (#ab133561, 1:1000, Abcam), Drebin (#ab178408, 1:1000, Abcam) and Tau-5 (#ab80579, 1:2000, Abcam) overnight at 4°C. After washing 3 times, the membranes were incubated with the respective HRP-conjugated secondary antibody. […] Quantitative analysis of protein bands was conducted by the Carestream system (Carestream Health, Inc, USA).

[3] = system: experimental subarachnoid hemorrhage models; set-up: method as in Luo et al., 2019; settings: ref Luo et al., 2019; cited from earlier work

SMILES: CCC12CC3CC(N)(C1)CC(CO[N+](=O)[O-])(C3)C2 (stereo not shown) [MN‐08]
- escape latency in Morris water maze test [1]: markedly shortened
- number of crossings in Morris water maze test [1]: increased
- discrimination index in novel object recognition (NOR) test ([1]; vs vehicle): significantly increased
- latency in step‐down avoidance (SDA) test ([1]; vs vehicle): significantly increased
- Tau hyperphosphorylation in the hippocampi ([2]; prevention study): consistently suppressed
- expression of synapse‐related proteins (SYP, PSD95, SYN I, SYN II, drebrin) ([2]; prevention study): reversal of the depressed expression
- neuronal loss in the hippocampus (NeuN) ([2]; prevention study): prevented
- expression ratio of Bcl‐2/Bax ([2]; hippocampi): upregulating
- expression ratio of cleaved Caspase‐3 to Caspase‐3 ([2]; hippocampi): downregulating
- cerebral blood flow [3]: increase
